Data as given in patent US20260207513A1, “PHARMACEUTICAL COMPOSITION OF SIPONIMOD” (Synthon B.V., priority 2022, published 2026).
Where two headings read alike, the source gives them in different places.

Tests used:
[1] = Water content w(H2O), Karl Fischer method; assay type: physicochemical
Description: […] The water content can be determined according to the Karl Fischer method as described in Ph. Eur. section 2.5.32. The determination is done by coulometry, preferably Mettler Toledo DL39 Karl Fisher Coulometer, or an equivalent apparatus, including a titration cell without diaphragm. Alternatively, the volumetric Karl Fisher method can be used to determine the water content. […] The water content can be achieved by choosing appropriate ingredients, drying, wetting or combination thereof.

[2] = Compatibility study, closed container: sum of impurities by HPLC
Description: Afterwards, the two components were blended in Turbula® at 72 rpm for 10 minutes. The resulting blend was compacted in the EKO eccentric compression machine in order to obtain a slug. The slug was milled manually, resulting into a milled blend. The milled blend (440 mg) was accurately weighed and placed in glass, opaque vial. […] The milled blend was then analyzed for a sum of area percent levels of impurities (A^imp) by HPLC. The HPLC was performed on Acquity UPLC BEH C8, 150×2.1 mm, dp=1.7 μm column. The detection with UV light at wavelength of 259 nm was used. The column was eluted, using a gradient method, with aqueous ammonium acetate (10 mM, pH 5.5) and acetonitrile at column temperature of 50° C. for 30 min.

[3] = Excipients - substantially dry w(H2O) < 0.5%
[4] = siponimod adipic acid co-crystal:excipient 1:10 (w/w), excipients substantially dry w(H2O) < 0.5%, closed container, 1 month, 40° C., RH 75%
[5] = Excipients - hydrated w(H2O) ≥ 5%
[6] = Excipients - dry 0.5% ≤ w(H2O) < 5%

| Compound | w (H2O) [1, 3] [%] | A^imp (1 m), sum of area percent levels of impurities [2, 4] [%] | further results |
| --- | --- | --- | --- |
| CCCCCCCCCCCCCCCCCCCCCC(=O)OCC(CO)OC(=O)CCCCCCCCCCCCCCCCCCCCC (stereo not shown) [Glycerol dibehenate] | 0.1 | 0.08 |  |
| CCCCCCCCCCCCCCCCCC(=O)OCC(O)CO (stereo not shown) [Glycerol monostearate] | 0.2 | 0.12 |  |
| OC[C@H]1O[C@@H](O[C@H]2[C@H](O)[C@@H](O)C(O)O[C@@H]2CO)[C@H](O)[C@@H](O)[C@H]1O (stereo partly shown) [Lactose] |  |  | w (H2O) [1, 5]: 5.0% |
| OC[C@@H](O)[C@@H](O)[C@H](O)[C@H](O)CO [Mannitol] |  |  | w (H2O) [1, 6]: 0.6% |
| CCc1cc(/C(C)=N/OCc2ccc(C3CCCCC3)c(C(F)(F)F)c2)ccc1CN1CC(C(=O)O)C1 [Siponimod adipic acid co-crystal] |  |  | w (H2O) ([1]; Active ingredients): 0.2%; A^imp (1 m), sum of area percent levels of impurities ([2]; Active ingredients, closed container, t = 1 month, 40° C., RH 75%): 0.09% |
| Isomalt |  |  | w (H2O) [1, 6]: 2.9%; w (H2O) [1, 5]: 5.0% |
| Magnesium stearate | 0.2 |  | A^imp (1 m), sum of area percent levels of impurities [2]: 0.16% |

Second part, led by results:

| w (H2O) [1, 3] [%] | A^imp (1 m), sum of area percent levels of impurities [2, 4] [%] | Compound | further results |
| --- | --- | --- | --- |
| 0.4 | 0.08 | CCCCCCCCCCCCCCCCCCOC(=O)/C=C/C(=O)[O-].[Na+] [Sodium stearyl fumarate] |  |
| 0.3 | 0.05 | CCCCCCCCCCCCCCCCCCO [Stearyl alcohol] |  |
